Results taken from US20090306031A1, “5alpha-ANDROSTANE-3,6,17-TRIONE (KNELLER'S TRIONE) AND METHODS OF USE THEREFOR” (priority 2009, published 2009).

Legend:
[1] = Pilot study: sex hormone profile in men after oral daily Kneller's Trione; format: in vivo, human; details: for ending testosterone-to-estradiol ratio: day 14, ratio to 1; for change of testosterone-to-estradiol ratio: starting vs ending (14 days); for ESTRADIOL / BIOAVAILABLE TESTOSTERONE / DHT / TOTAL TESTOSTERONE: person
Method: The first study subject was a person who was dosed once per day orally with 25 mg per day of Kneller's Trione.
The second study subject was a person who was dosed once per day orally with 50 mg per day of Kneller's Trione.
The third study subject was a person who was dosed once per day orally with 100 mg per day of Kneller's Trione.

[2] = Pilot study: adverse events and safety observations in study subjects; format: in vivo, human
[3] = 25 mg daily oral, 14 days vs baseline
[4] = 50 mg daily oral, 14 days vs baseline
[5] = 100 mg daily oral, 14 days vs baseline

## C[C@]12CCC(=O)C[C@@H]1C(=O)C[C@@H]1[C@@H]2CC[C@]2(C)C(=O)CC[C@@H]12 [Kneller's Trione, 5α-androstane-3,6,17-trione]
[1]; [3]
  increase in plasma bioavailable testosterone: 20%
  increase in plasma total testosterone: 13%
  reduction in plasma estradiol: 51%
[1]; 25 mg daily oral, starting ratio 133.83 to 1
  ending testosterone-to-estradiol ratio: 308.26
[1]; 25 mg daily oral
  change of testosterone-to-estradiol ratio: 130%
[1]; [4]
  change in plasma estradiol: no change
  increase in plasma bioavailable testosterone: 21%
  increase in plasma total testosterone: 28%
[1]; 50 mg daily oral, starting ratio 238.06 to 1
  ending testosterone-to-estradiol ratio: 305.56
[1]; 50 mg daily oral
  change of testosterone-to-estradiol ratio: 28%
[1]; [5]
  increase in plasma bioavailable testosterone: 146%
  increase in plasma total testosterone: 93%
  reduction in plasma estradiol: 26%
[1]; 100 mg daily oral, starting ratio 102.17 to 1
  ending testosterone-to-estradiol ratio: 266.18
[1]; 100 mg daily oral
  change of testosterone-to-estradiol ratio: 161%
[1]; 250 mg per day oral
  added benefit over a dose of 100 mg per day: did not seem to offer any added benefit
  total testosterone and bioavailable testosterone levels: raised total testosterone and bioavailable testosterone levels substantially and safely
[1]; 500 mg per day oral
  added benefit over a dose of 100 mg per day: did not seem to offer any added benefit
  total testosterone and bioavailable testosterone levels: raised total testosterone and bioavailable testosterone levels substantially and safely
[1]; 750 mg per day oral
  added benefits of high dosage: no added benefits were seen
[1]; general statement, dose not stated
  plasma testosterone levels in men: substantial and significant increases
[1]; general statement, relative to accepted normal limits
  plasma estradiol levels in men: no changes outside the accepted normal limits
[1]; oral administration, dose not stated
  increase of plasma free testosterone levels: more than 100%
[1]; 25 mg per day oral single dose, DAY 7, baseline 47 pg/mL
  ESTRADIOL: 28 pg/mL
[1]; 25 mg per day oral single dose, DAY 7, baseline 843 pg/mL
  BIOAVAILABLE TESTOSTERONE: 966 pg/mL
[1]; 25 mg per day oral single dose, DAY 7, baseline 42 ng/dL
  DHT: 36 ng/dL
[1]; 25 mg per day oral single dose, DAY 7, baseline (day 0) 6,290 pg/mL
  TOTAL TESTOSTERONE: 6,400 pg/mL
[1]; 25 mg per day oral single dose, DAY 14, baseline 47 pg/mL
  ESTRADIOL: 23 pg/mL
[1]; 25 mg per day oral single dose, DAY 14, baseline 843 pg/mL
  BIOAVAILABLE TESTOSTERONE: 1,014 pg/mL
[1]; 25 mg per day oral single dose, DAY 14, baseline 42 ng/dL
  DHT: 49 ng/dL
[1]; 25 mg per day oral single dose, DAY 14, baseline (day 0) 6,290 pg/mL
  TOTAL TESTOSTERONE: 7,090 pg/mL
[1]; 50 mg per day oral single dose, DAY 7, baseline 36 pg/mL
  ESTRADIOL: 35 pg/mL
[1]; 50 mg per day oral single dose, DAY 7, baseline 169.7 pg/mL
  BIOAVAILABLE TESTOSTERONE: 209 pg/mL
[1]; 50 mg per day oral single dose, DAY 7, baseline 47 ng/dL
  DHT: 46 ng/dL
[1]; 50 mg per day oral single dose, DAY 7, baseline (day 0) 8,570 pg/mL
  TOTAL TESTOSTERONE: 11,000 pg/mL
[1]; 50 mg per day oral single dose, DAY 14, baseline 36 pg/mL
  ESTRADIOL: 36 pg/mL
[1]; 50 mg per day oral single dose, DAY 14, baseline 169.7 pg/mL
  BIOAVAILABLE TESTOSTERONE: 209 pg/mL
[1]; 50 mg per day oral single dose, DAY 14, baseline 47 ng/dL
  DHT: 49 ng/dL
[1]; 50 mg per day oral single dose, DAY 14, baseline (day 0) 8,570 pg/mL
  TOTAL TESTOSTERONE: 11,000 pg/mL
[1]; 100 mg per day oral single dose, DAY 7, baseline 46 pg/mL
  ESTRADIOL: 44 pg/mL
[1]; 100 mg per day oral single dose, DAY 7, baseline 794 pg/mL
  BIOAVAILABLE TESTOSTERONE: 1,432 pg/mL
[1]; 100 mg per day oral single dose, DAY 7, baseline 35 ng/dL
  DHT: 48 ng/dL
[1]; 100 mg per day oral single dose, DAY 7, baseline (day 0) 4,700 pg/mL
  TOTAL TESTOSTERONE: 7,910 pg/mL
[1]; 100 mg per day oral single dose, DAY 14, baseline 46 pg/mL
  ESTRADIOL: 34 pg/mL
[1]; 100 mg per day oral single dose, DAY 14, baseline 794 pg/mL
  BIOAVAILABLE TESTOSTERONE: 1,957 pg/mL
[1]; 100 mg per day oral single dose, DAY 14, baseline 35 ng/dL
  DHT: 41 ng/dL
[1]; 100 mg per day oral single dose, DAY 14, baseline (day 0) 4,700 pg/mL
  TOTAL TESTOSTERONE: 9,050 pg/mL
[2]; 750 mg per day oral, subject withdrew from the pilot study
  adverse event: occurrence of a priaprism
[2]; every subject, frequent intervals, oral daily dosages 25 mg to 750 mg
  liver function, kidney function, blood lipid levels, blood pressure, heart rate, respirations, body temperature: within medically established normal ranges and values
[2]; oral daily dosages 25 mg to 750 mg
  other adverse events noted by any study subject: No other adverse events were noted
